Test results as given in patent US20050107289A1, “Anti-microbial peptides and compositions” (priority 2001, published 2005).
Values after ≈ are worked out from the molar mass of the structure shown. Marks after values point to notes of the source that are not given here. Non-standard residues stand in square brackets, D forms with d. Residues, ends and D or L forms follow the SMILES beside them.

Key:
murine red blood cells = assay: Red blood cell hemolysis; format: cell-based, mouse
Method in brief: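 Washed murine erythrocytes at 5% in saline with 10% FBS were exposed to serial peptide dilutions for 30 min at 37° C. Supernatant absorbance at 560 nm was read, with saline as 0% and 1% Triton X-100 as 100% hemolysis.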

[1] = Cytotoxicity to M21 melanoma cells; format: cell-based; details: human, read-out: M21 (melanoma) LD50
[2] = system: S. aureus (MRSA) ATCC 33591; format: cell-based, Staphylococcus aureus
Method in brief: (§1)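 Peptide activity was measured by NCCLS M7-A4 broth dilution, mostly as microdilution with some macrodilution. Serial 2-fold dilutions, approximately 400-2 μg/ml stock range, were made in 5% DMSO/9% aq. sucrose. Overnight cultures were diluted 4000-fold to about 2.5×10^5 cfu/ml inoculum.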

[3] = system: Listeria monocytogenes ATCC19115; assay: MIC, Listeria monocytogenes; format: cell-based
Description: (§2) The antimicrobial activity of the peptides was determined using a broth dilution assay essentially as descried in the guidelines of the National Committee for […] (NCCLS) [National Committee for Clinical Laboratory Standards. Methods for dilution antimicrobial susceptibility tests for bacteria that grow aerobically. Fourth edition. Approved Standard (1997). Document M7-A4. […] The microdilution method has the advantages of requiring less amount of peptide for each assay and the possibility of multiple simultaneous inoculations and was used in most studies. Several of the strains of bacteria tested are further described in Table 3.
(§3) Preparation of peptide solutions. Stock peptide solutions were prepared in 5% DMSO in aq. sucrose (9%). Determination of peptide concentrations was done by quantitative HPLC analysis using known concentrations of internal standards and/or by measuring UV absorption of tryptophane-containing peptide solutions in H2O (λ=280 εTrp: 5690). Serial 2-fold dilutions were made in the above DMSO/aq. sucrose (9%) mixture with concentrations ranging approximately 400-2 μg/ml and aliquots were dispensed in test tubes (100 μl) for the macrodilution test or in microtiter plates (20 μl) for the microdilution assays.
(§4) Inoculum preparation. […]

[4] = system: Salmonella typhimurium ATCC 14028; assay: MIC, Salmonella typhimurium; format: cell-based
Description: as §2, §3, §4

[5] = system: Enterococcus faecalis vancomycin-resistant clinical isolate; format: cell-based; details: data from MDS Panlabs
Description: as §2

[6] = system: Streptococcus pneumoniea erythromycin- and ampicillin-resistant clinical isolate; format: cell-based, Streptococcus pneumoniae; details: data from MDS Panlabs
Description: as §2

[7] = system: vancomycin-resistant Enterococus faecalis (VRE)(ATCC 51575); format: cell-based, Enterococcus faecalis; parameters: key to VRE (in vitro activity): peptide concentration in μg/ml (broth dilution assay)
Method in brief: as §1

E. coli JM109(DE3) = format: cell-based, Escherichia coli; details: JM109
Method in brief: as §1

[8] = system: Staphylococcus aureus ATCC25923; assay: MIC, Staphylococcus aureus ATCC25923; format: cell-based; details: data from MDS Panlabs Pharmacology Services
Description: as §2

[9] = system: Bacillus subtilis ATCC 43223; assay: MIC, Bacillus subtilis; format: cell-based; details: data from MDS Panlabs Pharmacology Services
Description: as §2

[10] = system: Bacillus cereus ATCC 11778; format: cell-based
Method in brief: as §1

[11] = system: Streptococcus pneumoniae (ATCC 6301); format: cell-based
Method in brief: as §1

Compound: CC(C)C[C@@H]1NC(=O)[C@@H](Cc2c[nH]c3ccccc23)NC(=O)[C@H](CCCNC(=N)N)NC(=O)[C@@H](CCC(N)=O)NC(=O)[C@H](CCCCN)NC(=O)[C@@H](Cc2c[nH]c3ccccc23)NC(=O)[C@H](CC(C)C)NC(=O)[C@@H](Cc2c[nH]c3ccccc23)NC1=O [SEQ ID NO:9, cyclo-[Lys-D-Gln-Arg-D-Trp-Leu-D-Trp-Leu-D-Trp]] (cyclo(K[dQ]R[dW]L[dW]L[dW]))
- RBC Hemolysis (HD50) (murine red blood cells): 40
- Red blood cell (mouse) HD50 (murine red blood cells): 45^j μg/ml
- CC50 [1]: > 75 µg/mL
- MRSA MIC ([2]; ATCC 33591): 12 µg/mL
- S. aureus (MRSA) MIC ([2]; ATCC 33591): 8 µg/mL
- MRSA (in vitro activity) ([2]; Table 9, media a: anti-microbial media-3 (AM-3)): 12
- MIC Listeria monocytogenes [3]: 20 µg/mL (≈ 16.7 µM)
- MIC Salmonella typhimurium [4]: >70 µg/mL
- MIC Enterococcus faecalis [5]: 10^b μg/ml
- MIC Streptococcus pneumoniea [6]: 10^b μg/ml
- VRE MIC ([7]; ATCC 51575): 12 µg/mL
- VRE (in vitro activity) ([7]; Table 9, media a: AM-3): 12
- E. coli MIC (E. coli JM109(DE3)): 80 µg/mL
- MIC Staphylococcus aureus [8]: 3^b μg/ml
- MIC Bacillus subtilis [9]: 3^b μg/ml
- B. cerius MIC [10]: 3 µg/mL
- MIC Bacillus cereus [10]: 2 µg/mL (≈ 1.67 µM)
- S. pneum. MIC [11]: 4 µg/mL
